Data taken from patent US8785655B2, “Ionic liquid solvents” (Dublin City University, priority 2009, dated 2014).

Tests used:
[1] = system: Staphylococcus aureus CCM 4516/08; experiment: Screen against bacteria, MIC/IC80; assay type: cell-based; conditions: SA
[2] = system: Staphylococcus aureus H 5996/08 Methiciline-resistant; experiment: Screen against bacteria, MIC/IC80; assay type: cell-based; conditions: MRSA
[3] = system: Staphylococcus epidermidis H 6966/08; experiment: Screen against bacteria, MIC/IC80; assay type: cell-based; conditions: SE
[4] = system: Enterococcus sp. J 14365/08; experiment: Screen against bacteria, MIC/IC80; assay type: cell-based; conditions: EF
[5] = system: Escherichia coli CCM4517; experiment: Screen against bacteria, MIC/IC80; assay type: cell-based; conditions: EC
[6] = system: Klebsiella pneumoniae D 11750/08; experiment: Screen against bacteria, MIC/IC80; assay type: cell-based; conditions: KP
[7] = system: Klebsiella pneumoniae J 14368/08 ESBL-positive; experiment: Screen against bacteria, MIC/IC80; assay type: cell-based; conditions: KP-E
[8] = system: Pseudomonas aeruginosa CCM 1961; experiment: Screen against bacteria, MIC/IC80; assay type: cell-based; conditions: PA
[9] = system: Candida albicans ATCC 44859; experiment: In vitro antifungal activity, MIC by microdilution (NCCLS M27-A)
[10] = system: Candida albicans ATCC 90028; experiment: as above
Method: (§1) In vitro antifungal activities of the compounds were evaluated on the collection of fungal strains deposited at the Department of Biological and Medical Sciences, Faculty of Pharmacy, Charles University, Czech Republic. All the isolates were maintained on Sabouraud dextrose agar prior to being tested.
(§2) Minimum inhibitory concentrations (MICs) were determined by the microdilution format of the NCCLS M27-A guidelines. […] RPMI 1640 (Sevapharma, Prague) medium supplemented with L-glutamine and buffered with 0.165 M morpholinepropanesulfonic acid to pH 7.0 was used as the test medium. The wells of the microdilution tray contained 100 μl of the RPMI 1640 medium with 2-fold serial dilutions of the compounds (1000 to 0.24 μmol/l for the new compounds) and 100 μl of inoculum suspension. Fungal inoculum in RPMI 1640 was prepared to give a final concentration of 5×103±0.2 cfu·ml-1. The trays were incubated at 35° C. and MICs were read visually for filamentous fungi and photometrically for yeasts as an optical density (OD) at 540 nm after 24 h and 48 h. The MICs were defined as 80% inhibition of the growth of control. MICs were determined twice and in duplicate. The deviations from the usually obtained were no higher than the nearest concentration value up and down the dilution scale.

[11] = system: Candida parapsilosis ATCC 22019; experiment: as above; conditions: CP
[12] = system: Candida krusei ATCC 6258; experiment: as above
[13] = system: Candida krusei E28; experiment: as above
[14] = system: Candida tropicalis 156; experiment: as above; conditions: CT
[15] = system: Candida glabrata 20/l; experiment: as above; conditions: CG
[16] = system: Candida lusitaniae 2446/l; experiment: as above; conditions: CL
Method: as §1, §2

[17] = system: Aspergillus fumigatus 231; experiment: as above; conditions: AF
[18] = system: Absidia corymbifera 272; experiment: as above; conditions: AC
Method: as §1, §2

[19] = system: Trichophyton mentagrophytes 445; experiment: as above; conditions: TM

SMILES | MIC/IC80 ([1]; 24 h) | MIC/IC80 ([1]; 48 h) | MIC/IC80 ([2]; 24 h) | MIC/IC80 ([2]; 48 h) | MIC/IC80 ([3]; 24 h) | MIC/IC80 ([3]; 48 h) | MIC/IC80 ([4]; 24 h) | MIC/IC80 ([4]; 48 h) | MIC/IC80 ([5]; 24 h) | MIC/IC80 ([5]; 48 h) | MIC/IC80 ([6]; 24 h) | MIC/IC80 ([6]; 48 h) | MIC/IC80 ([7]; 24 h) | MIC/IC80 ([7]; 48 h) | MIC/IC80 ([8]; 24 h) | MIC/IC80 ([8]; 48 h) | MIC/IC80 ([9]; CA1, 24 h) | MIC/IC80 ([9]; CA1, 48 h) | MIC/IC80 ([10]; CA2, 24 h) | MIC/IC80 ([10]; CA2, 48 h) | further results
CCCCCOC(=O)[C@@H](OC(=O)Cn1cc[n+](C)c1)c1ccccc1.[Br-] [KG824, S-3-methyl-1-[1-(pentoxycarbonyl)-1-phenylmethoxycarbonylmethyl]imidazolium bromide] | >1000 µM | >1000 µM | >1000 µM | >1000 µM | >1000 µM | >1000 µM | >1000 µM | >1000 µM | >1000 µM | >1000 µM | >1000 µM | >1000 µM | >1000 µM | >1000 µM | >1000 µM | >1000 µM | 500 µM | >1000 µM | 1000 µM | >1000 µM | MIC/IC80 ([11]; 24 h): >1000 µM; MIC/IC80 ([11]; 48 h): >1000 µM; MIC/IC80 ([12]; CK1, 24 h): 1000 µM; MIC/IC80 ([12]; CK1, 48 h): >1000 µM; MIC/IC80 ([13]; CK2, 24 h): 1000 µM; MIC/IC80 ([13]; CK2, 48 h): >1000 µM; MIC/IC80 ([14]; 24 h): >1000 µM; MIC/IC80 ([14]; 48 h): >1000 µM; MIC/IC80 ([15]; 24 h): 1000 µM; MIC/IC80 ([15]; 48 h): >1000 µM; MIC/IC80 ([16]; 24 h): >1000 µM; MIC/IC80 ([16]; 48 h): >1000 µM; MIC/IC80 ([17]; 24 h): 1000 µM; MIC/IC80 ([17]; 48 h): 1000 µM; MIC/IC80 ([18]; 24 h): 1000 µM; MIC/IC80 ([18]; 48 h): 1000 µM; MIC/IC80 ([19]; 72 h): 500 µM; MIC/IC80 ([19]; 120 h): 500 µM
CCOCCOC(=O)[C@@H](OC(=O)Cn1cc[n+](C)c1)c1ccccc1.[Br-] [KG826, S-3-methyl-1-[1-(ethoxyethoxycarbonyl)-1-phenylmethoxycarbonylmethyl]imidazolium bromide] | >1000 µM | >1000 µM | >1000 µM | >1000 µM | >1000 µM | >1000 µM | >1000 µM | >1000 µM | >1000 µM | >1000 µM | >1000 µM | >1000 µM | >1000 µM | >1000 µM | >1000 µM | >1000 µM | >1000 µM | >1000 µM | >1000 µM | >1000 µM | MIC/IC80 ([11]; 24 h): >1000 µM; MIC/IC80 ([11]; 48 h): >1000 µM; MIC/IC80 ([12]; CK1, 24 h): >1000 µM; MIC/IC80 ([12]; CK1, 48 h): >1000 µM; MIC/IC80 ([13]; CK2, 24 h): >1000 µM; MIC/IC80 ([13]; CK2, 48 h): >1000 µM; MIC/IC80 ([14]; 24 h): >1000 µM; MIC/IC80 ([14]; 48 h): >1000 µM; MIC/IC80 ([15]; 24 h): >1000 µM; MIC/IC80 ([15]; 48 h): >1000 µM; MIC/IC80 ([16]; 24 h): >1000 µM; MIC/IC80 ([16]; 48 h): >1000 µM; MIC/IC80 ([17]; 24 h): >1000 µM; MIC/IC80 ([17]; 48 h): >1000 µM; MIC/IC80 ([18]; 24 h): >1000 µM; MIC/IC80 ([18]; 48 h): >1000 µM; MIC/IC80 ([19]; 72 h): >1000 µM; MIC/IC80 ([19]; 120 h): >1000 µM
CCCCCOC(=O)[C@H](OC(=O)C[n+]1ccn(C)c1)c1ccccc1 [KG833, R-3-methyl-1-[1-(pentoxycarbonyl)-1-phenylmethoxycarbonylmethyl]imidazolium bromide] | 1000 µM | >1000 µM | >1000 µM | >1000 µM | >1000 µM | >1000 µM | >1000 µM | >1000 µM | >1000 µM | >1000 µM | >1000 µM | >1000 µM | >1000 µM | >1000 µM | >1000 µM | >1000 µM | 500 µM | >1000 µM | 1000 µM | >1000 µM | MIC/IC80 ([11]; 24 h): >1000 µM; MIC/IC80 ([11]; 48 h): >1000 µM; MIC/IC80 ([12]; CK1, 24 h): 1000 µM; MIC/IC80 ([12]; CK1, 48 h): >1000 µM; MIC/IC80 ([13]; CK2, 24 h): 1000 µM; MIC/IC80 ([13]; CK2, 48 h): >1000 µM; MIC/IC80 ([14]; 24 h): 1000 µM; MIC/IC80 ([14]; 48 h): >1000 µM; MIC/IC80 ([15]; 24 h): 1000 µM; MIC/IC80 ([15]; 48 h): >1000 µM; MIC/IC80 ([16]; 24 h): >1000 µM; MIC/IC80 ([16]; 48 h): >1000 µM; MIC/IC80 ([17]; 24 h): 1000 µM; MIC/IC80 ([17]; 48 h): 1000 µM; MIC/IC80 ([18]; 24 h): 1000 µM; MIC/IC80 ([18]; 48 h): 1000 µM; MIC/IC80 ([19]; 72 h): 500 µM; MIC/IC80 ([19]; 120 h): 500 µM
